Measurements from US9066517B2, “Pest control agents for honeybee parasitic pests, and pest control method for honeybee parasitic pests using the pest control agents” (MEIJI SEIKA PHARMA CO., LTD., priority 2013, dated 2015).

How the values were obtained:
Type in all cases: in vivo
Apis mellifera [1] = experiment: Test Example 2: mortality of honeybees after dipping the abdomens; details: rate 10 ppm, abdomens dipped into acetone solution, adult Apis mellifera
Description: (§1) After anesthesized with carbonic acid gas, adults of Apis mellifera collected from a hive were grouped in test cages such that there were 10 to 20 heads per cage. Thereafter, the Apis mellifera were subjected to a chemical treatment by dipping the abdomens into an acetone solution of the compound according to the present invention at predetermined concentrations. After the Apis mellifera air-dried, the recovery of the Apis mellifera from the anesthesia was confirmed. Then, the cages were lidded to leave the Apis mellifera to stand in a thermostatic chamber under dark at 25° C. Note that 50% sucrose water absorbed to absorbent cotton was provided as a bait during the test period.
(§2) The number of Apis mellifera survived at 72 hours after the chemical treatment as well as the numbers of Varroa destructor parasitizing the Apis mellifera before the chemical treatment and at 72 hours after the chemical treatment were examined. The mortality and the parasitism rate were calculated by the following equations. The test was conducted in duplicate. Mortality(%)={((100−survival rate in chemical treated plot)−(100−survival rate in acetone treated plot))/(100−mortalityin acetone treated plot)}×100 Parasitism rate(%)=(number of heads of honeybees parasitized by Varroa destructor/number of honeybees survived)×100

Varroa destructor [2] = experiment: Test Example 2: pest control test of Varroa destructor, parasitism rate; details: for Parasitism rate before treatment (%): rate 10 ppm group, before chemical treatment (baseline); for Parasitism rate at 72 hours after treatment (%) / Change in parasitism rate (%)*: rate 10 ppm; for Parasitism rate at 72 hours after treatment (%): abdomens dipped; for Change in parasitism rate (%)*: {100 − (parasitism rate at 72 hours after treatment/parasitism rate before treatment) × 100}
Description: as §1, §2

Apis mellifera [3] = experiment: Test Example 1: mortality of honeybees after topical application (micro applicator); details: acetone solution applied to abdomens of adult Apis mellifera infected with Varroa destructor, 48 hours after treatment
Protocol: (§3) After anesthesized with carbonic acid gas, adults of Apis mellifera infected with Varroa destructor were subjected to a chemical treatment by applying the abdomens with an acetone solution of the compound according to the present invention at predetermined concentrations using a micro applicator. After the treatment, Apis mellifera were transferred into a plastic case and left to stand in a thermostatic chamber under dark at 25° C. During the test period, 50% sucrose water absorbed to absorbent cotton was provided as a bait.
(§4) Forty eight hours after the chemical treatment, the number of Apis mellifera survived and the number of parasitic Varroa destructor were examined. The mortality of the honeybees and the preventive value against Varroa destructor were calculated by the following equations. Mortality(%)={((100−survival rate in chemical treated plot)−(100−survival rate in acetone treated plot))/(100−mortality in acetone treated plot)}×100 Preventive value={(parasitism rate in untreated plot−parasitism rate in chemical treated plot)/(parasitism rate in untreated plot)}×100

Varroa destructor [4] = experiment: Test Example 1: pest control test of Varroa destructor, preventive value; details: application dose 10 μg, Varroa destructor on adult Apis mellifera, 48 hours after treatment
Protocol: as §3, §4

Structure (SMILES) | Mortality at 72 hours after treatment (%) (Apis mellifera [1]) | Parasitism rate before treatment (%) (Varroa destructor [2]) | Parasitism rate at 72 hours after treatment (%) (Varroa destructor [2]) | Change in parasitism rate (%)* (Varroa destructor [2]) [%] | Mortality (%) (Apis mellifera [3]; application dose 10 μg) | Preventive value (Varroa destructor [4]) | Mortality (%) (Apis mellifera [3]; application dose 5 μg)
FC(F)(F)C(=S)N=c1ccccn1Cc1ccc(Cl)nc1 [Compound 1-20, N-[1-((6-chloropyridin-3-yl)methyl)pyridin-2(1H)-ylidene]-2,2,2-trifluoroethanethioamide] | 0 | 51 | 23 | −55 |  |  | 
O=C(N=c1ccccn1Cc1ccc(Cl)nc1)C(F)(F)F [Compound P212, N-[1-((6-chloropyridin-3-yl)methyl)pyridin-2(1H)-ylidene]-2,2,2-trifluoroacetamide] | 0 | 17 | 10 | −41 | 0 | 100 | 
CC(C)[C@H](Nc1ccc(C(F)(F)F)cc1Cl)C(=O)OC(C#N)c1cccc(Oc2ccccc2)c1 (some centres unmarked) [Fluvalinate, reference compound] |  |  |  |  |  |  | 64
